Measurements reported in US10618918B2, “Substituted boronic acids as antimicrobials” (priority 2015, dated 2020).
Like-named read-outs stand apart in the source and are kept apart here.

What was measured:
[1] = test system: EC1010 CMY-6; test: Aztreonam potentiation (MPC@4), strain EC1010 CMY-6; conditions: minimum BLI concentration inhibiting growth with aztreonam 4 μg/mL; tested up to 40 μg/mL
[2] = test system: AB1054 OXA-23; test: Meropenem potentiation (MPC@8), strain AB1054 OXA-23; assay type: cell-based, Acinetobacter baumannii; conditions: minimum BLI concentration inhibiting growth with meropenem 8 μg/mL; tested up to 20 μg/mL
[3] = test system: AB1053 OXA-72; test: Meropenem potentiation (MPC@8), strain AB1053 OXA-72; assay type: cell-based, Acinetobacter baumannii; conditions: minimum BLI concentration inhibiting growth with meropenem 8 μg/mL; tested up to 20 μg/mL
[4] = test system: KP1009 CTX-M-15; test: Aztreonam potentiation (MPC@4), strain KP1009 CTX-M-15; conditions: minimum BLI concentration inhibiting growth with aztreonam 4 μg/mL; tested up to 40 μg/mL
[5] = test system: ECL1002; test: Aztreonam potentiation (MPC@4), strain ECL1002; conditions: minimum BLI concentration inhibiting growth with aztreonam 4 μg/mL; tested up to 40 μg/mL
[6] = test system: ec308 SHV-5; test: Aztreonam potentiation (MPC@4), strain ec308 SHV-5; conditions: minimum BLI concentration inhibiting growth with aztreonam 4 μg/mL; tested up to 40 μg/mL
[7] = test system: KP1004 KPC-2; test: Aztreonam potentiation (MPC@4), strain KP1004 KPC-2; conditions: minimum BLI concentration inhibiting growth with aztreonam 4 μg/mL; tested up to 40 μg/mL
[8] = test system: KP1010 SHV-12; test: Aztreonam potentiation (MPC@4), strain KP1010 SHV-12; conditions: minimum BLI concentration inhibiting growth with aztreonam 4 μg/mL; tested up to 40 μg/mL
[9] = test system: ec302 TEM-10; test: Aztreonam potentiation (MPC@4), strain ec302 TEM-10; conditions: minimum BLI concentration inhibiting growth with aztreonam 4 μg/mL; tested up to 40 μg/mL
[10] = test system: KP1086 OXA-48; test: Biapenem potentiation (MPC@1), strain KP1086 OXA-48; assay type: cell-based; conditions: minimum BLI concentration inhibiting growth with biapenem 1 μg/mL; tested up to 40 μg/mL
Method: (§1) Biapenem was present in the test medium at 1 μg/mL. […] Table 3 summarizes the BLI potency of biapenem potentiation (MPC@1) for two strains overexpressing class A (KPC) and class D (OXA-48) carbapenemases. Biapenem MIC for each strain is also shown.

[11] = test system: KP1004 KPC-2; test: Biapenem potentiation (MPC@1), strain KP1004 KPC-2; assay type: cell-based; conditions: minimum BLI concentration inhibiting growth with biapenem 1 μg/mL; tested up to 40 μg/mL
Method: as §1

[12] = test system: KP1005 CTX-M-14; test: Tigemonam potentiation (MPC@4), strain KP1005 CTX-M-14; conditions: minimum BLI concentration inhibiting growth with tigemonam 4 μg/mL; tested up to 40 μg/mL
[13] = molecular target: purified class A, C and D enzymes (β-lactamases) (Klebsiella pneumoniae, UniProt Q6XEC0); test: biochemical; assay type: biochemical; conditions: purified OXA-48; nitrocefin (NCF) as reporter substrate
[14] = molecular target: purified class A, C and D enzymes (β-lactamases) (Escherichia coli, UniProt Q9L5C7); test: biochemical; assay type: biochemical; conditions: purified CTX-M-14; nitrocefin (NCF) as reporter substrate
Chain of purified class A, C and D enzymes (β-lactamases) (Escherichia coli, UniProt Q9L5C7) (Q9L5C7 entry or part of it): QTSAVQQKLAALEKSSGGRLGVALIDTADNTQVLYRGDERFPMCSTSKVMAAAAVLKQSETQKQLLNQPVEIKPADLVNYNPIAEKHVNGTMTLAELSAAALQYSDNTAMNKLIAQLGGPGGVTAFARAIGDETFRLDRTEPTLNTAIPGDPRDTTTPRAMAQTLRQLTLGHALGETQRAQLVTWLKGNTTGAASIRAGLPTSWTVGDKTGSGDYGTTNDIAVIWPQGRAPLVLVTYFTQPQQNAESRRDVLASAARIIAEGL

[15] = molecular target: purified class A, C and D enzymes (β-lactamases) (Enterobacter cloacae, UniProt P05364); test: biochemical; assay type: biochemical
Chain of purified class A, C and D enzymes (β-lactamases) (Enterobacter cloacae, UniProt P05364) (P05364 21-381): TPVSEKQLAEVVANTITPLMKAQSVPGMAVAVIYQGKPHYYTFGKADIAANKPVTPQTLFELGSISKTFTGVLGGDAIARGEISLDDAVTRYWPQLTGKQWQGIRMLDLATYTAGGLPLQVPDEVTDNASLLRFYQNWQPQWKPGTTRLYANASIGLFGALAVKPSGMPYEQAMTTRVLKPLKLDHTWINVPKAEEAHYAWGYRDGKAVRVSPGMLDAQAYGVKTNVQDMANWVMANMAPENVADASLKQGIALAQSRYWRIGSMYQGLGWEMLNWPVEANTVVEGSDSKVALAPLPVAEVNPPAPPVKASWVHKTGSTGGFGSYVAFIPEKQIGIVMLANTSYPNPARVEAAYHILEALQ

[16] = molecular target: purified class A, C and D enzymes (β-lactamases) (Klebsiella pneumoniae, UniProt Q9F663); test: biochemical; assay type: biochemical; conditions: purified KPC-2; nitrocefin (NCF) as reporter substrate
[17] = molecular target: T1, purified class A, C and D enzymes (β-lactamases) (Pseudomonas aeruginosa, UniProt P24735); test: biochemical; assay type: biochemical
T1 construct: rows headed: Ki (Pa-AmpC, NCF), uM; other: purified Pa-AmpC; nitrocefin (NCF) as reporter substrate
T1 sequence (P24735 whole entry): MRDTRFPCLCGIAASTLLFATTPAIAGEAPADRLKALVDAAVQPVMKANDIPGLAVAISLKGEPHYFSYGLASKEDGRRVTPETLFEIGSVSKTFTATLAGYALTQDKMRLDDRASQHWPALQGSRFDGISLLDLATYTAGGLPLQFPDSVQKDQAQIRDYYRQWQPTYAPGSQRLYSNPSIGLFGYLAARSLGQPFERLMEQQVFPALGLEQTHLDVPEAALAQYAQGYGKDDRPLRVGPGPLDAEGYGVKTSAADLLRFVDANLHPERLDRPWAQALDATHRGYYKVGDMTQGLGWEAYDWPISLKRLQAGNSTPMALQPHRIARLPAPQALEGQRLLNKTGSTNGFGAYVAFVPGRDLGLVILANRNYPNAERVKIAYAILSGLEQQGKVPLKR

[18] = molecular target: T2, purified class A, C and D enzymes (β-lactamases) (Acinetobacter baumannii, UniProt Q9L4P2); test: biochemical; assay type: biochemical; conditions: purified OXA-23; nitrocefin (NCF) as reporter substrate
T2 construct: rows headed: Ki (OXA-23, NCF), uM; other: purified OXA-23; nitrocefin (NCF) as reporter substrate
T2 sequence (Q9L4P2 whole entry): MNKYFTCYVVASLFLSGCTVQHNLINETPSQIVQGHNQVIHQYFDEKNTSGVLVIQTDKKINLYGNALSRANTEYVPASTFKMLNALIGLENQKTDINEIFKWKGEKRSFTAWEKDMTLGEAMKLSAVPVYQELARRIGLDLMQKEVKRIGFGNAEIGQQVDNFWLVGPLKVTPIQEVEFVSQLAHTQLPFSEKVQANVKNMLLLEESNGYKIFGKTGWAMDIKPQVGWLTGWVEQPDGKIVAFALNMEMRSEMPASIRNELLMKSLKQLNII

SMILES	AZT MPC4 CMY-6 EC1010 [1]	MPM MPC8 AB1054 OXA-23 [2]	MPM MPC8 AB1053 OXA-72 [3]	AZT MPC4 CTX-M-15 KP1009 [4]	AZT MPC4 ECL1002 [5]	AZT MPC4 SHV-5 ec308 [6]	AZT MPC4 KPC-2 KP1004 [7]	AZT MPC4 SHV-12 KP1010 [8]	AZT MPC4 TEM-10 ec302 [9]	BPM MPC1 OXA-48 KP1086 [10]	BPM MPC1 KP1004 KPC-2 [11]	TIG MPC4 CTX-M-14 KP1005 [12]	Ki (OXA-48, NCF), uM [13]	Ki (CTX-M-14, NCF), uM [14]	Ki (P99, NCF), uM [15]	Ki (KPC-2, NCF), uM [16]	Ki [17] [nM]	Ki [18] [nM]	Ki (P99, NCF), uM ([15]; purified P99, nitrocefin (NCF) as reporter substrate)	Ki ([17]; purified Pa-AmpC, nitrocefin (NCF) as reporter substrate, read-out: Ki (Pa-AmpC, NCF)) [nM]
CCOc1ccc2c(c1C(=O)[O-])O[B-](O)(O)CC2.[Na+].[Na+] [Compound 57, Disodium; 8-ethoxy-4,4-dihydroxy-5-oxa-4-boranuidabicyclo[4.4.0]deca-1(6),7,9-triene-7-carboxylate]	X (X = MPC@4 ≤ 5 μg/mL)	X (X = MPC@1 ≤ 5 μg/mL)	X (X = MPC@1 ≤ 5 μg/mL)	X (X = MPC@4 ≤ 5 μg/mL)	X (X = MPC@4 ≤ 5 μg/mL)	X (X = MPC@4 ≤ 5 μg/mL)	X (X = MPC@4 ≤ 5 μg/mL)	X (X = MPC@4 ≤ 5 μg/mL)	X (X = MPC@4 ≤ 5 μg/mL)	X (X = MPC@1 ≤ 5 μg/mL)	X (X = MPC@1 ≤ 5 μg/mL)	Y (Y = 5 μg/mL < MPC@4 ≤ 20 μg/mL)	X (X = Ki ≤ 0.1 μM)	X (X = Ki ≤ 0.1 μM)	X (key: X = Ki ≤ 0.1 μM; Y = 0.1 μM < Ki ≤ 1 μM; Z = Ki > 1 μM)	X (X = Ki ≤ 0.1 μM)	< 100	< 100		
[2H]C1([2H])Cc2ccc(OC)c(C(=O)[O-])c2O[B-]1(O)O.[Na+].[Na+] [Compound 60, Disodium; 3,3-dideuterio-4,4-dihydroxy-8-methoxy-5-oxa-4-boranuidabicyclo[4.4.0]deca-1(10),6,8-triene-7-carboxylate]	X (X = MPC@4 ≤ 5 μg/mL)	X (X = MPC@1 ≤ 5 μg/mL)	X (X = MPC@1 ≤ 5 μg/mL)	X (X = MPC@4 ≤ 5 μg/mL)	X (X = MPC@4 ≤ 5 μg/mL)	X (X = MPC@4 ≤ 5 μg/mL)	X (X = MPC@4 ≤ 5 μg/mL)	X (X = MPC@4 ≤ 5 μg/mL)	X (X = MPC@4 ≤ 5 μg/mL)	X (X = MPC@1 ≤ 5 μg/mL)	X (X = MPC@1 ≤ 5 μg/mL)	X (X = MPC@4 ≤ 5 μg/mL)	X (X = Ki ≤ 0.1 μM)	X (X = Ki ≤ 0.1 μM)	X (key: X = Ki ≤ 0.1 μM; Y = 0.1 μM < Ki ≤ 1 μM; Z = Ki > 1 μM)	X (X = Ki ≤ 0.1 μM)	< 100	< 100		
O=C([O-])c1c(OCc2ccncc2)ccc2c1O[B-](O)(O)CC2.[Na+].[Na+] [Compound 28, Disodium; 4,4-dihydroxy-8-(4-pyridylmethoxy)-5-oxa-4-boranuidabicyclo[4.4.0]deca-1(6),7,9-triene-7-carboxylate]	X (X = MPC@4 ≤ 5 μg/mL)	X (X = MPC@1 ≤ 5 μg/mL)	X (X = MPC@1 ≤ 5 μg/mL)	Y (Y = 5 μg/mL < MPC@4 ≤ 20 μg/mL)	Y (Y = 5 μg/mL < MPC@4 ≤ 20 μg/mL)	Y (Y = 5 μg/mL < MPC@4 ≤ 20 μg/mL)	X (X = MPC@4 ≤ 5 μg/mL)	X (X = MPC@4 ≤ 5 μg/mL)	X (X = MPC@4 ≤ 5 μg/mL)	X (X = MPC@1 ≤ 5 μg/mL)	X (X = MPC@1 ≤ 5 μg/mL)	Z (Z = MPC@4 > 20 μg/mL)	X (X = Ki ≤ 0.1 μM)	X (X = Ki ≤ 0.1 μM)	X (key: X = Ki ≤ 0.1 μM; Y = 0.1 μM < Ki ≤ 1 μM; Z = Ki > 1 μM)	X (X = Ki ≤ 0.1 μM)	< 100	< 100		
COc1c(Cl)cc2c(c1C(=O)O)OB(O)CC2 [Compound 41, 6-Chloro-2-hydroxy-7-methoxy-3,4-dihydro-1,2-benzoxaborinine-8-carboxylic acid]	X (X = MPC@4 ≤ 5 μg/mL)	X (X = MPC@1 ≤ 5 μg/mL)	X (X = MPC@1 ≤ 5 μg/mL)	X (X = MPC@4 ≤ 5 μg/mL)	X (X = MPC@4 ≤ 5 μg/mL)	X (X = MPC@4 ≤ 5 μg/mL)	X (X = MPC@4 ≤ 5 μg/mL)	X (X = MPC@4 ≤ 5 μg/mL)	X (X = MPC@4 ≤ 5 μg/mL)	X (X = MPC@1 ≤ 5 μg/mL)	X (X = MPC@1 ≤ 5 μg/mL)	Y (Y = 5 μg/mL < MPC@4 ≤ 20 μg/mL)	X (X = Ki ≤ 0.1 μM)	X (X = Ki ≤ 0.1 μM)		X (X = Ki ≤ 0.1 μM)		< 100	X (X = Ki ≤ 0.1 μM)	< 100
O=C([O-])c1c(OCC#CCN2CCC2)ccc2c1O[B-](O)(O)CC2.[Na+].[Na+] [Compound 62, Disodium; 8-[4-(azetidin-1-yl)but-2-ynoxy]-4,4-dihydroxy-5-oxa-4-boranuidabicyclo[4.4.0]deca-1(6),7,9-triene-7-carboxylate]	X (X = MPC@4 ≤ 5 μg/mL)	X (X = MPC@1 ≤ 5 μg/mL)	X (X = MPC@1 ≤ 5 μg/mL)	X (X = MPC@4 ≤ 5 μg/mL)	X (X = MPC@4 ≤ 5 μg/mL)	X (X = MPC@4 ≤ 5 μg/mL)	X (X = MPC@4 ≤ 5 μg/mL)	X (X = MPC@4 ≤ 5 μg/mL)	X (X = MPC@4 ≤ 5 μg/mL)	X (X = MPC@1 ≤ 5 μg/mL)	X (X = MPC@1 ≤ 5 μg/mL)	Y (Y = 5 μg/mL < MPC@4 ≤ 20 μg/mL)	X (X = Ki ≤ 0.1 μM)	X (X = Ki ≤ 0.1 μM)	X (key: X = Ki ≤ 0.1 μM; Y = 0.1 μM < Ki ≤ 1 μM; Z = Ki > 1 μM)	X (X = Ki ≤ 0.1 μM)	< 100	< 100		
O=C([O-])c1c(CO)ccc2c1O[B-](O)(O)CC2.[Na+].[Na+] [Compound 49, Disodium; 4,4-dihydroxy-8-(hydroxymethyl)-5-oxa-4-boranuidabicyclo[4.4.0]deca-1(6),7,9-triene-7-carboxylate]	X (X = MPC@4 ≤ 5 μg/mL)	Y (Y = 5 μg/mL < MPC@1 ≤ 20 μg/mL)	Y (Y = 5 μg/mL < MPC@1 ≤ 20 μg/mL)	X (X = MPC@4 ≤ 5 μg/mL)	X (X = MPC@4 ≤ 5 μg/mL)	X (X = MPC@4 ≤ 5 μg/mL)	X (X = MPC@4 ≤ 5 μg/mL)	X (X = MPC@4 ≤ 5 μg/mL)	X (X = MPC@4 ≤ 5 μg/mL)	X (X = MPC@1 ≤ 5 μg/mL)	X (X = MPC@1 ≤ 5 μg/mL)	X (X = MPC@4 ≤ 5 μg/mL)	X (X = Ki ≤ 0.1 μM)	X (X = Ki ≤ 0.1 μM)	X (key: X = Ki ≤ 0.1 μM; Y = 0.1 μM < Ki ≤ 1 μM; Z = Ki > 1 μM)	X (X = Ki ≤ 0.1 μM)	< 100	< 100		
